Measurements published in patent US11007136B2, “Cosmetic composition for wrinkle reduction containing gypenoside isolated from Gynostemma pentaphyllum” (CELLTRION INC., priority 2015, dated 2021).

Experiments:
[1] = test system: human dermal fibroblast neonatal; experiment: Procollagen production (collagen synthesis promotion), ELISA kit; type: cell-based; settings: 1 and 5 μg/ml, 48 h, versus positive control NAG at the same concentration, FIG. 3
Protocol: A human dermal fibroblast neonatal (Cascade Co.) was inoculated into a 24-well microplate (5×10^4 cells/well) by using a medium, in which Dulbeco's Modified Eagle's Medium (DMEM) was supplemented with 10% fetal bovine serum, thus being cultured under a condition of 37° C. and 5% CO2 for 24 hours. Then, the same was replaced with a serum-free DMEM medium and cultured for 24 hours, after which an appropriate amount of a sample fluid was treated so that a final concentration of each test compound could reach 1 μg/ml and 5 μg/ml. After being cultured for 48 hours, a cell culture fluid was collected and then an amount of procollagen was measured by using a collagen measurement kit of Takara Company (Takara Shuzo Co., Ltd.). First of all, the collected cell culture fluid was injected into a 96-well microplate, to which a primary collagen antibody was evenly applied, such that an antigen-antibody reaction could occur at 37° C. for three hours. The cell culture fluid was removed from the well and washed four times with PBS. A color causing material was injected into each well, after which a reaction took place at a room temperature for 15 minutes, such that 1 N sulfuric acid solution was added thereto, thus stopping the reaction. An optical density was measured at a wavelength of 450 nm by means of a spectrophotometer. […]

[2] = Titer stability of UL4 and UL5 within formulations (HPLC); type: physicochemical; settings: for content stability Result: over 12 weeks
Protocol: As shown in Formulation Examples 1, 2 and 3, cosmetic compositions of a high viscosity emulsified formulation, a low viscosity emulsified formulation and a solubilized formulation, respectively comprising 0.2% of the Gynostemma pentaphyllum gypenoside fraction, were stored under a condition of 4 CC, 30 CC, 45° C. and sunlight for 12 weeks and changes with passage of time (% compared to an initial content) in the gypenosides UL4 and UL5, which were index ingredients for quantification out of the Gynostemma pentaphyllum gypenoside ingredients, were observed through an HPLC analysis, and results thereof were indicated in Tables 10 to 12.

[3] = test system: human dermal fibroblast neonatal; experiment: Cytotoxicity test (MTT); type: cell-based; settings: for HDFn Viability: 48 h, % control
Protocol: A human dermal fibroblast neonatal (Cascade Co.) was inoculated into a 24-well microplate (5×10^4 cells/well) by using a medium, in which Dulbeco's Modified Eagle's Medium (DMEM) was supplemented with 10% fetal bovine serum, thus being cultured under a condition of 37° C. and 5% CO2 for 24 hours. Then, the same was replaced with a serum-free DMEM medium and cultured for 24 hours, thus treating the Gynostemma pentaphyllum gypenoside fraction obtained from the Example 1 and the gypenosides UL4 and UL5 isolated therefrom, respectively. After being cultured for 48 hours, an MTT solution was added thereto, thus being cultured for four hours. The medium was removed therefrom and DMSO was added thereto, thus dissolving an MTT formazan. The MTT formazan dissolved in the DMSO was taken out and an optical density thereof was measured at 570 nm, thus being compared to a group without sample treatment and indicated as % control.

content, % compared to an initial content ([2]; High viscosity emulsified formulation, 4° C., 1 week): 100.6%
content, % compared to an initial content ([2]; High viscosity emulsified formulation, 4° C., 2 weeks): 95.1%
content, % compared to an initial content ([2]; High viscosity emulsified formulation, 4° C., 4 weeks): 104.4%
content, % compared to an initial content ([2]; High viscosity emulsified formulation, 4° C., 8 weeks): 104.2%
content, % compared to an initial content ([2]; High viscosity emulsified formulation, 4° C., 12 weeks): 106.9%
content stability Result ([2]; High viscosity emulsified formulation, 4° C.): Stable
content, % compared to an initial content ([2]; High viscosity emulsified formulation, 30° C., 1 week): 103.8%
content, % compared to an initial content ([2]; High viscosity emulsified formulation, 30° C., 2 weeks): 105.7%
content, % compared to an initial content ([2]; High viscosity emulsified formulation, 30° C., 4 weeks): 108.2%
content, % compared to an initial content ([2]; High viscosity emulsified formulation, 30° C., 8 weeks): 103.4%
content, % compared to an initial content ([2]; High viscosity emulsified formulation, 30° C., 12 weeks): 104.1%
content stability Result ([2]; High viscosity emulsified formulation, 30° C.): Stable
content, % compared to an initial content ([2]; High viscosity emulsified formulation, 45° C., 1 week): 102.6%
content, % compared to an initial content ([2]; High viscosity emulsified formulation, 45° C., 2 weeks): 104.6%
content, % compared to an initial content ([2]; High viscosity emulsified formulation, 45° C., 4 weeks): 102.1%
content, % compared to an initial content ([2]; High viscosity emulsified formulation, 45° C., 8 weeks): 101.8%
content, % compared to an initial content ([2]; High viscosity emulsified formulation, 45° C., 12 weeks): 103.1%
content stability Result ([2]; High viscosity emulsified formulation, 45° C.): Stable
content, % compared to an initial content ([2]; High viscosity emulsified formulation, Sunlight, 1 week): 101.8%
content, % compared to an initial content ([2]; High viscosity emulsified formulation, Sunlight, 2 weeks): 99.2%
content, % compared to an initial content ([2]; High viscosity emulsified formulation, Sunlight, 4 weeks): 103%
content, % compared to an initial content ([2]; High viscosity emulsified formulation, Sunlight, 8 weeks): 101.1%
content, % compared to an initial content ([2]; High viscosity emulsified formulation, Sunlight, 12 weeks): 104.9%
content stability Result ([2]; High viscosity emulsified formulation, Sunlight): Stable
content, % compared to an initial content ([2]; Low viscosity emulsified formulation, 4° C., 1 week): 98.8%
content, % compared to an initial content ([2]; Low viscosity emulsified formulation, 4° C., 2 weeks): 100.4%
content, % compared to an initial content ([2]; Low viscosity emulsified formulation, 4° C., 4 weeks): 102.8%
content, % compared to an initial content ([2]; Low viscosity emulsified formulation, 4° C., 8 weeks): 100.2%
content, % compared to an initial content ([2]; Low viscosity emulsified formulation, 4° C., 12 weeks): 95.2%
content stability Result ([2]; Low viscosity emulsified formulation, 4° C.): Stable
content, % compared to an initial content ([2]; Low viscosity emulsified formulation, 30° C., 1 week): 103.3%
content, % compared to an initial content ([2]; Low viscosity emulsified formulation, 30° C., 2 weeks): 103.9%
content, % compared to an initial content ([2]; Low viscosity emulsified formulation, 30° C., 4 weeks): 102.2%
content, % compared to an initial content ([2]; Low viscosity emulsified formulation, 30° C., 8 weeks): 105.6%
content, % compared to an initial content ([2]; Low viscosity emulsified formulation, 30° C., 12 weeks): 105%
content stability Result ([2]; Low viscosity emulsified formulation, 30° C.): Stable
content, % compared to an initial content ([2]; Low viscosity emulsified formulation, 45° C., 1 week): 103.5%
content, % compared to an initial content ([2]; Low viscosity emulsified formulation, 45° C., 2 weeks): 102%
content, % compared to an initial content ([2]; Low viscosity emulsified formulation, 45° C., 4 weeks): 104.8%
content, % compared to an initial content ([2]; Low viscosity emulsified formulation, 45° C., 8 weeks): 94.2%
content, % compared to an initial content ([2]; Low viscosity emulsified formulation, 45° C., 12 weeks): 98.3%
content stability Result ([2]; Low viscosity emulsified formulation, 45° C.): Stable
content, % compared to an initial content ([2]; Low viscosity emulsified formulation, Sunlight, 1 week): 94.4%
content, % compared to an initial content ([2]; Low viscosity emulsified formulation, Sunlight, 2 weeks): 98.1%
content, % compared to an initial content ([2]; Low viscosity emulsified formulation, Sunlight, 4 weeks): 101.6%
content, % compared to an initial content ([2]; Low viscosity emulsified formulation, Sunlight, 8 weeks): 101%
content, % compared to an initial content ([2]; Low viscosity emulsified formulation, Sunlight, 12 weeks): 102.6%
content stability Result ([2]; Low viscosity emulsified formulation, Sunlight): Stable
content, % compared to an initial content ([2]; Solubilized formulation, 4° C., 1 week): 98.8%
content, % compared to an initial content ([2]; Solubilized formulation, 4° C., 2 weeks): 95.7%
content, % compared to an initial content ([2]; Solubilized formulation, 4° C., 4 weeks): 105.1%
content, % compared to an initial content ([2]; Solubilized formulation, 4° C., 8 weeks): 102.8%
content, % compared to an initial content ([2]; Solubilized formulation, 4° C., 12 weeks): 102.3%
content stability Result ([2]; Solubilized formulation, 4° C.): Stable
content, % compared to an initial content ([2]; Solubilized formulation, 30° C., 1 week): 100%
content, % compared to an initial content ([2]; Solubilized formulation, 30° C., 2 weeks): 105.1%
content, % compared to an initial content ([2]; Solubilized formulation, 30° C., 4 weeks): 108.6%
content, % compared to an initial content ([2]; Solubilized formulation, 30° C., 8 weeks): 103.7%
content, % compared to an initial content ([2]; Solubilized formulation, 30° C., 12 weeks): 104.9%
content stability Result ([2]; Solubilized formulation, 30° C.): Stable
content, % compared to an initial content ([2]; Solubilized formulation, 45° C., 1 week): 100.3%
content, % compared to an initial content ([2]; Solubilized formulation, 45° C., 2 weeks): 101.4%
content, % compared to an initial content ([2]; Solubilized formulation, 45° C., 4 weeks): 97.2%
content, % compared to an initial content ([2]; Solubilized formulation, 45° C., 8 weeks): 102.1%
content, % compared to an initial content ([2]; Solubilized formulation, 45° C., 12 weeks): 95.6%
content stability Result ([2]; Solubilized formulation, 45° C.): Stable
content, % compared to an initial content ([2]; Solubilized formulation, Sunlight, 1 week): 97.9%
content, % compared to an initial content ([2]; Solubilized formulation, Sunlight, 2 weeks): 95.9%
content, % compared to an initial content ([2]; Solubilized formulation, Sunlight, 4 weeks): 104.9%
content, % compared to an initial content ([2]; Solubilized formulation, Sunlight, 8 weeks): 103.5%
content, % compared to an initial content ([2]; Solubilized formulation, Sunlight, 12 weeks): 103.3%
content stability Result ([2]; Solubilized formulation, Sunlight): Stable
SMILES: CC(C)=CC1C[C@](O)([C@H]2CC[C@]3(C)[C@@H]2CC[C@@H]2[C@@]4(C=O)CC[C@H](O[C@@H]5OC[C@H](O)[C@H](O[C@@H]6O[C@H](CO)[C@@H](O)[C@H](O)[C@H]6O)[C@H]5O[C@@H]5O[C@@H](C)[C@H](O)[C@@H](O)[C@H]5O)C(C)(C)[C@@H]4CC[C@]23C)[C@H](O)O1 (stereo partly drawn) [Gypenoside UL5, (23ξ)-3β,20β,21α-trihydroxy-19-oxo-21,23-epoxy-dammar-24-ene-3-O-[α-L-rhamnopyranosyl (1→2)][β-D-glucopyranosyl (1→3)]-α-L-arabinopyranoside]
procollagen-producing effect compared with NAG [1]: the same or larger amount of procollagen
HDFn Viability ([3]; 5 ug/ml): 100%
HDFn Viability ([3]; 10 ug/ml): 102%
HDFn Viability ([3]; 50 ug/ml): 113%
cytotoxicity ([3]; at concentrations promoting procollagen synthesis): did not show any cytotoxicity
